Reference: publication PMC7827406, “Structure–Activity Relationship (SAR) Study of Spautin-1 to Entail the Discovery of Novel NEK4 Inhibitors” (International Journal of Molecular Sciences, 2021)
Where two headings read alike, the source gives them in different places.

Experiments:
Experiment in all cases: biochemical
Design in all cases: Eurofins KinaseProfiler full panel at Km ATP, residual kinase activity (%) relative to DMSO
MLK2(h) = biological target: T1, MLK2(h) (Homo sapiens, UniProt Q02779)
T1 construct: gene MAP3K10
Method in brief: (§1)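 Compounds screened at 10 µM in radiometric kinase activity assays at Km ATP, reported as remaining kinase activity (%). A KINOMEscan competition-binding screen at 10 µM measured DNA-tagged kinase retained on immobilized active-site ligand by qPCR.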

TSSK1(h) = biological target: T2, TSSK1(h) (Homo sapiens, UniProt Q9BXA7)
T2 construct: gene TSSK1B
T2 sequence (Q9BXA7 1-367): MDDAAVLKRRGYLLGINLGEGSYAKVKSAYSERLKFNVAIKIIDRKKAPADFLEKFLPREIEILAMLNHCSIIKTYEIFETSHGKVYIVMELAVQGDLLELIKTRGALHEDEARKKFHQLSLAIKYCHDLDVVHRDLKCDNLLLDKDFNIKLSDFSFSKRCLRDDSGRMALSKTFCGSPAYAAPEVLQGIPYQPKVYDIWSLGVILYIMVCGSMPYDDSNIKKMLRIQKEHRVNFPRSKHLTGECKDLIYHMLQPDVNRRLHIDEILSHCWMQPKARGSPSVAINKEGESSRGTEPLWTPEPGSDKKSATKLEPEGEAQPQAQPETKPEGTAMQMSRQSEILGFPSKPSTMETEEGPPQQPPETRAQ
Method in brief: as §1

PKCι(h) = biological target: T3, PKCι(h) (Homo sapiens, UniProt P41743)
T3 construct: gene PRKCI
T3 sequence (P41743 1-596): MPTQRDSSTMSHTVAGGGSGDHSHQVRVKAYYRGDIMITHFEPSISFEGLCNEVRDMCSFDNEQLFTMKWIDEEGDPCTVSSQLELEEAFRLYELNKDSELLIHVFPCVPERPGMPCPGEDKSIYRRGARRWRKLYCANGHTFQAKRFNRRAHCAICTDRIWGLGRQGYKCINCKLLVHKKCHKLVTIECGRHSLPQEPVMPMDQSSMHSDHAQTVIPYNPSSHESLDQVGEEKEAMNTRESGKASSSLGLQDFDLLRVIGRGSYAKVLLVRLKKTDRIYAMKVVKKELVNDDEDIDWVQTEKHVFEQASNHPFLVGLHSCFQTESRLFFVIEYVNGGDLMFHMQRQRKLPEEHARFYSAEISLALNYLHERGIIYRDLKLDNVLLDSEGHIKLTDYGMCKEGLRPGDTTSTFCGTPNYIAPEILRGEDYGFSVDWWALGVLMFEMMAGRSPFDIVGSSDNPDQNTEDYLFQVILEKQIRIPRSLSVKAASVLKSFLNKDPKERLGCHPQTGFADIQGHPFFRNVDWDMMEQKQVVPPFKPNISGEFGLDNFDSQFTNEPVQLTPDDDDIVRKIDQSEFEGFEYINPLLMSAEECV
Method in brief: as §1

TGFBR2(h) = TGFBR2(h) (Homo sapiens, UniProt P37173)
Method in brief: as §1

TSSK2(h) = biological target: T4, TSSK2(h) (Homo sapiens, UniProt Q96PF2)
T4 sequence (Q96PF2 1-358): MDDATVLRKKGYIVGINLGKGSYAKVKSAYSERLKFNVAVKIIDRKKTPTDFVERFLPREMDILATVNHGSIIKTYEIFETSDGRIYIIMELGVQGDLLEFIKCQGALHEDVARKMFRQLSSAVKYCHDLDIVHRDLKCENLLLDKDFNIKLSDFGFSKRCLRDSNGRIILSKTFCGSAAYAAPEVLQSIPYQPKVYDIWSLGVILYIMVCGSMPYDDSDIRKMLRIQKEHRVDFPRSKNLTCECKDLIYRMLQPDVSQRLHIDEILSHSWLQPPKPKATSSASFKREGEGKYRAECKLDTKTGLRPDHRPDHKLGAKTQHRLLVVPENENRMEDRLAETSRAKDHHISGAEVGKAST
Method in brief: as §1

[1] = read-out: Residual activity (%) 5at
[2] = read-out: Residual activity (%) 5as
[3] = read-out: Residual activity (%) 5ay
[4] = read-out: Residual activity (%) Spautin-1 5aa

TGFBR2(h), sequence (P37173 whole entry): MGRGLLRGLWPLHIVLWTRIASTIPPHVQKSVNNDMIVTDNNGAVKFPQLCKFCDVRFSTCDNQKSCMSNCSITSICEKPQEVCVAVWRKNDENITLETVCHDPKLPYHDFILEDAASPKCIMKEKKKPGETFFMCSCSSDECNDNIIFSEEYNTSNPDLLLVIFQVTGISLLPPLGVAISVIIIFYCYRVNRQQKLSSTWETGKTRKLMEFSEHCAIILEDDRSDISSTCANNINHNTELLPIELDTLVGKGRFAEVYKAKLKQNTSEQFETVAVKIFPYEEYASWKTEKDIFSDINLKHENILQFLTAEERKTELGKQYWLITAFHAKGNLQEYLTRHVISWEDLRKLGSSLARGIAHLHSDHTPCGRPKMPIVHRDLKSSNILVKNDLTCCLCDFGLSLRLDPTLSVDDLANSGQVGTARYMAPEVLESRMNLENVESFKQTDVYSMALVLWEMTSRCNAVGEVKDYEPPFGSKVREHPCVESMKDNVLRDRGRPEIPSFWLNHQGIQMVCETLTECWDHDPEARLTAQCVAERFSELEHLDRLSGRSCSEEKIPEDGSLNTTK
T1 sequence (Q02779 whole entry): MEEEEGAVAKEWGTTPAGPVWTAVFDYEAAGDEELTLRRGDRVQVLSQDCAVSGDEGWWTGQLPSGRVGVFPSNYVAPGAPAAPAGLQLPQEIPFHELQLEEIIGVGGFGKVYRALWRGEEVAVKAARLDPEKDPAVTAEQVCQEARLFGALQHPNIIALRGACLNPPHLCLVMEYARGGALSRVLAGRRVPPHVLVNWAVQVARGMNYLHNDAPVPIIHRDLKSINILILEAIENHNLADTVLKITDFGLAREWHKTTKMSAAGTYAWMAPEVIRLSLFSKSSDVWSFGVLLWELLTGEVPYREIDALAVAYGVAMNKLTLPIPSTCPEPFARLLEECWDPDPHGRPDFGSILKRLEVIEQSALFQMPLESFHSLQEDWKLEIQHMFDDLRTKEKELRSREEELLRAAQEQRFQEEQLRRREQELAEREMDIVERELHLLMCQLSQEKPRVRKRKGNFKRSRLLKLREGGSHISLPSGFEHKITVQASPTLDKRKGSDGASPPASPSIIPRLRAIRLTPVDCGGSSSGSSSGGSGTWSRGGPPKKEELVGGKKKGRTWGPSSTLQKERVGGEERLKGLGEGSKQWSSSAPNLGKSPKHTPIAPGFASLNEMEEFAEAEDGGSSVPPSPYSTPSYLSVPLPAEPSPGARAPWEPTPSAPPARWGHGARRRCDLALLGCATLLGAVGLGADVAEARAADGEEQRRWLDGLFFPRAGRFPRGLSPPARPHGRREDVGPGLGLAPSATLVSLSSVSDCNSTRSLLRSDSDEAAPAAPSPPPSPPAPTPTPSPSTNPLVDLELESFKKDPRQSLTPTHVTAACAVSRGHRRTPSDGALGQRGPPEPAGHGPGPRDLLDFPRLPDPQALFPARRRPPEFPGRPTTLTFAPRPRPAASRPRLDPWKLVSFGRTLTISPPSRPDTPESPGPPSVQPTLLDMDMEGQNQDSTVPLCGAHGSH

Fc1ccc2ncnc(NCCc3ccc(Cl)cc3)c2c1 [5at, N-[2-(4-Chlorophenyl)Ethyl]-6-Fluoro-4-Quinazolinamine]
remaining activity at 10 µM (MLK2(h); [1]): 93%
remaining activity at 10 µM (TSSK1(h); [1]): 77%
remaining activity at 10 µM (PKCι(h); [1]): 98%
remaining activity at 10 µM (TGFBR2(h); [1]): 93%
remaining activity at 10 µM (TSSK2(h); [1]): 103%

Fc1ccc(CCNc2ncnc3ccc(F)cc23)cc1 [5as, 6-Fluoro-N-[2-(4-Fluorophenyl)Ethyl]-4-Quinazolinamine]
remaining activity at 10 µM (MLK2(h); [2]): 97%
remaining activity at 10 µM (TSSK1(h); [2]): 82%
remaining activity at 10 µM (PKCι(h); [2]): 114%
remaining activity at 10 µM (TGFBR2(h); [2]): 91%
remaining activity at 10 µM (TSSK2(h); [2]): 97%

COc1ccc2ncnc(Nc3cccc(F)c3)c2c1 [5ay, N-(3-Fluorophenyl)-6-Methoxy-4-Quinazolinamine]
remaining activity at 10 µM (MLK2(h); [3]): 96%
remaining activity at 10 µM (TSSK1(h); [3]): 81%
remaining activity at 10 µM (PKCι(h); [3]): 89%
remaining activity at 10 µM (TGFBR2(h); [3]): 96%
remaining activity at 10 µM (TSSK2(h); [3]): 103%

Fc1ccc(CNc2ncnc3ccc(F)cc23)cc1 [5aa, 6-Fluoro-N-(4-fluorobenzyl)-4-Quinazolinamine]
remaining activity at 10 µM (MLK2(h); [4]): 95%
remaining activity at 10 µM (TSSK1(h); [4]): 82%
remaining activity at 10 µM (PKCι(h); [4]): 84%
remaining activity at 10 µM (TGFBR2(h); [4]): 97%
remaining activity at 10 µM (TSSK2(h); [4]): 101%
